Reference: patent publication US12162867B2, “Inhibitors of RNA helicase DHX9 and uses thereof” (ACCENT THERAPEUTICS, INC., priority 2022, dated 2024)

These compounds were tested on circBRIP1 in HCT116 cells (assay: DHX9 circBRIP1 cellular target engagement SYBR Green assay (qPCR)). Details: Homo sapiens, HCT-116, circBRIP1, HCT116 cells; SyBr assay (marked ^+); read-out: DHX9 Cellular Target Engagement EC50.
Assay type: cell-based

SMILES | EC50
CS(=O)(=O)Nc1cc(Cl)cc(NC(=O)c2cnn(C3CC4CCC(C3)O4)c2)c1 (centres unmarked) [Example 250] | 3.55 µM
CS(=O)(=O)Nc1cc(Cl)cc(NC(=O)c2cnn([C@H]3CC[C@@H](O)CC3)c2)c1 [Example 151, N-(3-chloro-5-(methylsulfonamido)phenyl)-1-((1s,4s)-4-hydroxycyclohexyl)-1H-pyrazole-4-carboxamide] | > 10 µM
Cc1ccc2sc(C(=O)Nc3cc(Cl)cc(NS(C)(=O)=O)c3)cc2c1 [Example 331] | 3.75 µM
CS(=O)(=O)Nc1cc(Cl)cc(NC(=O)c2cc(-c3ncccc3CC(=O)N3CCC3)cs2)c1 [Example 382] | 0.64 µM
CS(=O)(=O)Nc1cc(Cl)cc(NC(=O)c2cc(-c3ccccc3)co2)c1 [Example 7] | 24.2 µM
CS(=O)(=O)Nc1cc(Cl)cc(NC(=O)c2cc3cccc(F)c3s2)c1 [Example 297] | > 10 µM
CS(=O)(=O)Nc1cc(Cl)cc(NC(=O)c2cc3c(F)cccc3s2)c1 [Example 296] | 1.14 µM
CCS(=O)(=O)Nc1cc(Cl)cc(NC(=O)c2cc(C)n(-c3ccc(N4CCOCC4)cn3)c2)c1 [Example 249] | 0.0295 µM

Other lines, results leading:

EC50 | SMILES
4.34 µM | CS(=O)(=O)Nc1cc(Br)cc(NC(=O)c2cnn(-c3ccc(C#N)cn3)c2)c1 [Example 41]
2.09 µM | CS(=O)(=O)Nc1cc(Cl)cc(NC(=O)c2cc(CN)n(-c3ccccn3)c2)c1 [Example 181]
0.895 µM | CS(=O)(=O)Nc1cc(Br)cc(NC(=O)c2cnn(-c3ncccn3)c2)c1 [Example 50, N-(3-bromo-5-(methylsulfonamido)phenyl)-1-(pyrimidin-2-yl)-1H-pyrazole-4-carboxamide]
5.98 µM | Cc1cccc2cc(C(=O)Nc3cc(Cl)cc(NS(C)(=O)=O)c3)cn12 [Example 304]
> 30 µM | CS(=O)(=O)Nc1cc(Cl)cc(NC(=O)c2cccc(-c3ccnc(Cl)c3)c2)c1 [Example 102, N-(3-chloro-5-(methylsulfonamido)phenyl)-3-(2-chloropyridin-4-yl)benzamide]
12.3 µM | Cc1ccc(C(=O)Nc2cc(Br)cc(NS(C)(=O)=O)c2)cc1-n1cccn1 [Example 10]
0.627 µM | CS(=O)(=O)Nc1cc(F)cc(NC(=O)c2cc(-c3ccccn3)cs2)c1 [Example 112, N-(3-fluoro-5-(methylsulfonamido)phenyl)-4-(pyridin-2-yl)thiophene-2-carboxamide]
> 10 µM | CS(=O)(=O)Nc1cc(Cl)cc(NC(=O)c2cnn(-c3ccc(S(C)(=O)=O)cn3)c2)c1 [Example 198]
1.42 µM | CS(=O)(=O)Nc1cc(Br)cc(NC(=O)c2cnn(-c3ccccc3CO)c2)c1 [Example 161, N-(3-bromo-5-(methylsulfonamido)phenyl)-1-(2-(hydroxymethyl)phenyl)-1H-pyrazole-4-carboxamide]
5.14 µM | CS(=O)(=O)Nc1cc(Cl)cc(NC(=O)c2csc(-c3ccccc3)c2)c1 [Example 124, N-(3-chloro-5-(methylsulfonamido)phenyl)-5-phenylthiophene-3-carboxamide]

Same assay, conditions: Homo sapiens, HCT-116, circBRIP1, HCT116 cells; ^+ SyBr assay was used; read-out: DHX9 Cellular Target Engagement EC50

EC50 | SMILES
0.0289 µM | Cc1cc(C(=O)Nc2cc(Cl)cc(NS(C)(=O)=O)c2)cn1-c1ccc(N(C)C2CCOC2)cn1 (centres unmarked) [Example 674]
0.425 µM | CSc1cnc(-n2cc(C(=O)Nc3cc(Cl)cc(NS(C)(=O)=O)c3)cc2C)nc1 [Example 658]
4.23 µM | CS(=O)(=O)Nc1cc(Cl)cc(NC(=O)c2cnn(-c3ncc(N4CCOCC4)cn3)c2)c1 [Example 394]
4.99 µM | CN1CCN(C(=O)c2cc(C(=O)Nc3cc(Cl)cc(NS(C)(=O)=O)c3)cn2-c2ccccn2)CC1 [Example 665]
4.52 µM | Cn1cc(C(=O)Nc2cc(Cl)cc(NS(C)(=O)=O)c2)cc1-c1ncccc1Oc1cccnc1 [Example 655]
0.817 µM | Cc1cc(C(=O)Nc2cc(Cl)cc(NS(C)(=O)=O)c2)cn1-c1ncc([S+](C)[O-])cn1 (centres unmarked) [Example 657]
2.49 µM | Cc1sc(C(=O)Nc2cc(Cl)cc(NS(C)(=O)=O)c2)cc1-c1nccn1CCc1ccccc1 [Example 698]
8.72 µM | CS(=O)(=O)Nc1cc(Cl)cc(NC(=O)c2cc(C(=O)N3CCCCC3)n(-c3ccccn3)c2)c1 [Example 644]
